Test results published in US9453226B2, “Protection of cells from Alu-RNA-induced degeneration and inhibitors for protecting cells” (UNIVERSITY OF KENTUCKY RESEARCH FOUNDATION, priority 2011, dated 2016).
Like-named read-outs stand apart in the source and are kept apart here.

What was measured:
[1] = system: RPE; assay: Alu RNA-induced RPE degeneration in wild-type mice, inhibitors given intravitreously; type: in vivo; settings: WT mice; subretinal Alu RNA; inhibitor intravitreous
Experimental: Subretinal injection and imaging. Subretinal injections (1 μL) were performed using a Pico-Injector (PLI-100, Harvard Apparatus). Plasmids were transfected in vivo using 10% Neuroporter (Genlantis). Fundus imaging was performed on a TRC-50 IX camera (Topcon) linked to a digital imaging system (Sony). RPE flat mounts were immunolabeled using antibodies against zonula occludens-1 (Invitrogen).
Retinal photographs of dilated mouse eyes were taken with a TRC-50 IX camera (Topcon) linked to a digital imaging system (Sony).
Human eyes fixed in 2-4% paraformaldehyde were prepared as eyecups, cryoprotected in 30% sucrose, embedded in optimal cutting temperature compound (Tissue-Tek OCT; Sakura Finetek), and cryosectioned into 10 μm sections. Depigmentation was achieved using 0.25% potassium permanganate and 0.1% oxalic acid. Immunohistochemical staining was performed with the rabbit antibody against NLRP3 (1:100, Sigma Aldrich) or rabbit antibody against Caspase-1 (prediluted, AbCam). Isotype IgG was substituted for the primary antibody to assess the specificity of the staining. Bound antibody was detected with biotin-conjugated secondary antibodies, followed by incubation with ABC reagent and visualized by Vector Blue (Vector Laboratories). Levamisole (Vector Laboratories) was used to block endogenous alkaline phosphatase activity. Slides were washed in PBS, counterstained with neutral red (Fisher Scientific), rinsed with deionized water, air dried, and then mounted in Vectamount (Vector Laboratories). Fluorescent labeling of human tissue was performed with the rabbit antibody against PYCARD (1:50, Clone N-15, Santa Cruz Biotechnology) Immunolabeling was visualized by fluorescently conjugated anti-rabbit secondary antibody (Invitrogen). Tissue autofluorescence was quenched by incubating the sections in 0.3% Sudan black (Fisher Scientific). Sections were mounted in Vectashield with DAPI (Vector Laboratories). Mouse RPE/choroid flat mounts were fixed with 4% paraformaldehyde or 100% methanol, stained with rabbit antibodies against human zonula occludens-1 (1:100, Invitrogen) and visualized with Alexa594 (Invitrogen). All images were obtained using the Leica SP-5 or Zeiss Axio Observer Z1 microscopes.
Subretinal injections (1 μL) in mice were performed using a Pico-Injector (PLI-100, Harvard Apparatus). In vivo transfection of plasmids coding for two different Alu sequences (pAlu) or empty control vector (pNull) (Bennett et al., 2008; Kaneko et al., 2011; Shaikh et al., 1997) was achieved using 10% Neuroporter (Genlantis). AAV1-BEST1-Cre (Alexander and Hauswirth, 2008) or AAV1-BEST1-GFP were injected at 1.0×10^11 pfu/mL and in vitro transcribed Alu RNA was injected at 0.3 mg/mL.
siRNAs formulated in siRNA buffer (20 mM KCL, 0.2 mM MgCl2 in HEPES buffer at pH 7.5; Dharmacon) or phosphate buffered saline (PBS; Sigma-Aldrich); the TLR4 antagonist Ultra Pure Rhodobacter sphaeroides LPS (LPS-RS, InvivoGen), a peptide inhibitor of MyD88 homodimerization IMG-2005 (IMGENEX), control inhibitor (IMGENEX), recombinant IL-18 (Medical & Biological Laboratories), neutralizing rat antibodies against mouse IL-1β (IMGENEX), neutralizing rat antibodies against mouse IL-18 (Medical & Biological Laboratories), isotype control IgGs (R&D Systems or eBioscience as appropriate), Caspase-1 inhibitor Z-WEHD-FMK (R&D Systems), Caspase control inhibitor Z-FA-FMK (R&D Systems), DPI (Enzo Life Sciences), Mito-TEMPO (Enzo Life Sciences), MitoQ and dTPP (both adsorbed to cyclodextrin and provided by M.P. Murphy, MRC Mitochondrial Biology Unit), and gp91ds-tat and scrambled gp91 ds-tat (both Anaspec), were dissolved in phosphate buffered saline (PBS; Sigma-Aldrich) or dimethyl sulfoxide (DMSO; Sigma-Aldrich), and injected into the vitreous humor in a total volume of 1 μL with a 33-gauge Exmire microsyringe (Ito Corporation). […] As a control, Luc siRNA-chol (17+2 nt) was used with identical dosages.

[2] = system: human RPE cells; settings: human RPE cells transfected with pAlu
Experimental: All cell cultures were maintained at 37° C. and 5% CO2. Primary mouse RPE cells were isolated as previously described (Yang et al., 2009) and grown in Dulbecco Modified Eagle Medium (DMEM) supplemented with 20% FBS and standard antibiotics concentrations. Primary human RPE cells were isolated as previously described (Yang et al., 2008) and maintained in DMEM supplemented with 10% FBS and antibiotics. HeLa cells were maintained in DMEM supplemented with 20% FBS and standard antibiotics concentrations. THP-1 cells were cultured in RPMI 1640 medium supplemented with 10% FBS and antibiotics.
MTS assays were performed using the CellTiter 96 AQueous One Solution Cell Proliferation Assay (Promega) according to the manufacturer's instructions. For examining the cytoprotective effect of glycine in Alu RNA induced cell death, human RPE cells were transfected with pNull/pAlu. At 6 h post-transfection the cells were incubated with complete media containing glycine (5 mM) or vehicle, and cell viability was assessed after 24 h. Similarly, human RPE cells primed with LPS (5 μg/ml for 6 h) were treated with ATP (25 μM) in the presence of glycine containing media (5 mM). 30 min post ATP cell viability was assessed as described above.
MTS assays were performed using the CellTiter 96 AQueous One Solution Cell Proliferation Assay (Promega) according to the manufacturer's instructions.

[3] = system: miRNA; assay: miRNA abundance in Dicer1-depleted mouse RPE cells; type: cell-based
Description: Total RNA containing miRNAs was polyadenylated and reverse transcribed using universal primer using the All-In-One miRNA q-RT-PCR Detection Kit (GeneCopoeia) according to the manufacturer's specifications using a universal reverse primer in combination with the following forward primers: mouse miR-184 (5′-[…]-3′); mouse miR-221/222 (5′-[…]-3′); mouse miR-320a (5′-[…]-3′), and mouse miR-484 (5′-[…]-3′). miRNA levels were normalized to levels of U6 snRNA (5′-[…]-3′) using the 2^−ΔΔCt method. Detection was achieved by SYBR green qPCR with the following conditions: 95° C. for 10 min followed by 40 cycles of 95° C. for 10 s, 60° C. for 20 s and 72° C. for 20 s. Amplicon specificity was assessed by melt curve analysis and unique bands by agarose gel electrophoresis.

DRQIKIWFQNRRMKWKKRDVLPGT [MyD88 inhibitory peptide]
Alu RNA-induced RPE degeneration [1]: prevented RPE degeneration | pAlu-induced human RPE cell death / loss of cell viability ([2]; listed as MyD88-inhibitory peptide): inhibited cell death | pAlu-induced human RPE cell death / loss of cell viability ([2]; listed as MyD88i): rescued | miRNA abundance versus control peptide [3]: No significant difference
